{"source": "patent US20230404956A1", "about": "“T[…] FOR […]” (Asklepion Pharmaceuticals LLC, priority 2022, published 2023)", "key": {"[1]": {"system": "pediatric patients exposed to cardiopulmonary bypass in congenital heart defect surgery", "test": "Phase 3 double-blind, placebo-controlled trial of citrulline in congenital heart defect surgery with cardiopulmonary bypass", "assay_type": "in vivo", "protocol": "A Phase 3 study was carried out as a double-blind, placebo-controlled trial to confirm the effect. The Phase 3 trial was performed in the US, EU, and Israel, using a modified intent-to-treat population (or modified full analysis set) of 190 patients, of whom 138 were in the US and 52 were ex-US.\nThe starting point for the analysis was consideration of the complete modified full analysis set, consisting of all enrolled patients who completed the protocol. […] The Modified Full Analysis Set consists of all enrolled patients who completed the protocol.\nIn the study protocol and accompanying pharmacy manual for both studies, citrulline dosing occurs in four distinct phases. Dose 1 is a loading dose added to the cardiopulmonary bypass fluids on a mg/kg basis. Dose 3 is a bolus administered following surgery on a mg/kg basis, and Dose 4 is an IV drip at 9 mg/kg/hour. No variation in administration of these doses was introduced during the course of the phase 3 study.\nIn contrast, Dose 2, the intraoperative dosing designed to compensate for ultrafiltration, was subject to some variation. Ultrafiltration during cardiac surgery is not standardized, and therefore, it was not possible to completely standardize this dose. The perfusionist estimates the volume of ultrafiltrate removed, as well as the volume of cardioplegia solution. The perfusionist then calculates according to the study pharmacy manual instructions the amount of citrulline to be administered to compensate for the ultrafiltered citrulline in order to maintain a specified therapeutic level.\nAlthough the therapeutic target level was set at 100 micromolar during the phase 2 study, because of the potential for variation in Dose 2 (which is given intraoperatively to compensate for the routine ongoing ultrafiltration of circulating bypass fluids to reduce the circulating concentrations of inflammatory mediators) and the concern that some patients might inadvertently receive sub-therapeutic intraoperative levels, the target level for Dose 2 in the phase 3 study was increased to 200 micromolar. This was considered to be safe since no adverse effects of citrulline had been reported, even at substantially higher levels in medical use. In order to examine whether variation in Dose 2 could explain the results obtained, the actual dose received, shown as the percent of the targeted dose, was plotted against the composite variable results. Since placebos received no citrulline, they were plotted at the 0% level.\nFor the Phase 3 trial, a target intraoperative dose of […] (Dose 2) was chosen to preclude an inadvertent drop below an efficacious level in any patient. The potential for variation in intraoperative dosing arises from the lack of standardization of cardiopulmonary bypass ultrafiltration techniques. […] Nonetheless, expansion of the study to a greater number of sites raised the concern that some sites might inadvertently underdose Dose 2. Given the known innocuous nature of L-citrulline, an endogenous amino acid that is given medicinally in doses an order of magnitude higher than this to urea cycle disorder patients, as well as the well-tolerated high endogenous concentrations of citrulline in hypercitrullinemia patients, there was no concern for erring on the high side of the presumed effective dose.\nTo investigate the data in more detail, patients were stratified according to the dose level actually administered intraoperatively. The values obtained for duration of mechanical ventilation (MV), length of inotrope therapy (InoTx) and the composite primary (created for the SAP, based on the longer of the MV or InoTx) in any patient were segmented into groups based on the percent of the 200 μmol target dose actually received by the patient, by comparing patients who had received <65%, <75%, <85%, <95%, and >95% of the calculated target dose. […] Analysis was performed via two-sided Wilcoxon Rank Sum. […]"}, "[2]": {"system": "nitric oxide production", "test": "Nitric oxide production in a murine system, measured via NO metabolites", "description": "It is important to recall that citrulline is regenerated in the last step of NO production, making negative feedback by citrulline a reasonable hypothesis. Alternatively, an acute increase in NO production, which is known to have a negative feedback effect on NOS (Viziri and Wang, 1999) could explain the results. […] The negative clinical effects in the >95% group for the Phase 3 trial may thus result from one or more negative feedback mechanisms. The negative feedback could result from either the effect of NO or the citrulline itself creating feedback on the system."}, "[3]": {"system": "pediatric patients undergoing surgical procedures involving cardiopulmonary bypass", "settings": "22 patients (11 Tx, 11 PL); Dose 2 100 μmol; cited from earlier work"}}, "data": [{"smiles": "NC(=O)NCCC[C@H](N)C(=O)O", "note": "[citrulline, L-citrulline]", "values": [{"measurement": "Composite (the longer of the MV or InoTx), median", "setting": "[1]; <65% of target Dose 2, p = 0.0040 vs placebo", "value": 1267.0, "unit": "min"}, {"measurement": "Vent (duration of mechanical ventilation), median", "setting": "[1]; <65% of target Dose 2, p = 0.0097 vs placebo", "value": 139.0, "unit": "min"}, {"measurement": "Inotrope (duration of inotrope therapy), median", "setting": "[1]; <65% of target Dose 2, p = 0.0211 vs placebo", "value": 1260.0, "unit": "min"}, {"measurement": "PICU/NICU stay, median", "setting": "[1]; <65% of target Dose 2, p = 0.0236 vs placebo", "value": 2, "unit": "days"}, {"measurement": "Hospitalization, median", "setting": "[1]; <65% of target Dose 2, p = 0.0953 vs placebo", "value": 4, "unit": "days"}, {"measurement": "Long-term hospitalizations, citrulline-treated vs placebo", "setting": "[1]; <75% of calculated Dose 2", "value": "fewer long-term hospitalizations"}, {"measurement": "Overall length of hospital stay, citrulline vs placebo", "setting": "[1]; <75% of calculated Dose 2", "value": "not significantly different"}, {"measurement": "Reduction of median Composite time vs placebo", "setting": "[1]; <75% of target Dose 2", "value": 42, "unit": "%"}, {"measurement": "Reduction of median Inotrope time vs placebo", "setting": "[1]; <75% of target Dose 2", "value": 26, "unit": "%"}, {"measurement": "Reduction of median Mechanical Ventilation time vs placebo", "setting": "[1]; <75% of target Dose 2", "value": 70, "unit": "%"}, {"measurement": "Reduction of median PICU/NICU stay vs placebo", "setting": "[1]; <75% of target Dose 2", "value": 33, "unit": "%"}, {"measurement": "Composite (the longer of the MV or InoTx), median", "setting": "[1]; <75% of target Dose 2, p = 0.0025 vs placebo", "value": 1267.0, "unit": "min"}, {"measurement": "Vent (duration of mechanical ventilation), median", "setting": "[1]; <75% of target Dose 2, p = 0.0129 vs placebo", "value": 170.0, "unit": "min"}, {"measurement": "Inotrope (duration of inotrope therapy), median", "setting": "[1]; <75% of target Dose 2, p = 0.0158 vs placebo", "value": 1260.0, "unit": "min"}, {"measurement": "PICU/NICU stay, median", "setting": "[1]; <75% of target Dose 2, p = 0.0295 vs placebo", "value": 2, "unit": "days"}, {"measurement": "Hospitalization, median", "setting": "[1]; <75% of target Dose 2, p = 0.1905 vs placebo", "value": 5, "unit": "days"}, {"measurement": "Composite (the longer of the MV or InoTx), median", "setting": "[1]; <85% of target Dose 2, p = 0.0029 vs placebo", "value": 1283.5, "unit": "min"}, {"measurement": "Vent (duration of mechanical ventilation), median", "setting": "[1]; <85% of target Dose 2, p = 0.0163 vs placebo", "value": 176.0, "unit": "min"}, {"measurement": "Inotrope (duration of inotrope therapy), median", "setting": "[1]; <85% of target Dose 2, p = 0.0176 vs placebo", "value": 1263.5, "unit": "min"}, {"measurement": "PICU/NICU stay, median", "setting": "[1]; <85% of target Dose 2, p = 0.0332 vs placebo", "value": 2, "unit": "days"}, {"measurement": "Hospitalization, median", "setting": "[1]; <85% of target Dose 2, p = 0.1369 vs placebo", "value": 5, "unit": "days"}, {"measurement": "Composite (the longer of the MV or InoTx), median", "setting": "[1]; <95% of target Dose 2, p = 0.0033 vs placebo", "value": 1357.0, "unit": "min"}, {"measurement": "Inotrope (duration of inotrope therapy), median", "setting": "[1]; <95% of target Dose 2, p = 0.0242 vs placebo", "value": 1300.0, "unit": "min"}, {"measurement": "Vent (duration of mechanical ventilation), median", "setting": "[1]; <95% of target Dose 2, p = 0.0459 vs placebo", "value": 237.0, "unit": "min"}, {"measurement": "PICU/NICU stay, median", "setting": "[1]; <95% of target Dose 2, p = 0.1232 vs placebo", "value": 2, "unit": "days"}, {"measurement": "Hospitalization, median", "setting": "[1]; <95% of target Dose 2, p = 0.3169 vs placebo", "value": 5, "unit": "days"}, {"measurement": "Hospitalization, median", "setting": "[1]; >95% of target Dose 2, p = 0.0006 vs placebo", "value": 7, "unit": "days"}, {"measurement": "PICU/NICU stay, median", "setting": "[1]; >95% of target Dose 2, p = 0.0034 vs placebo", "value": 4, "unit": "days"}, {"measurement": "Vent (duration of mechanical ventilation), median", "setting": "[1]; >95% of target Dose 2, p = 0.0041 vs placebo", "value": 2385.0, "unit": "min"}, {"measurement": "Inotrope (duration of inotrope therapy), median", "setting": "[1]; >95% of target Dose 2, p = 0.0069 vs placebo", "value": 3142.5, "unit": "min"}, {"measurement": "Composite (the longer of the MV or InoTx), median", "setting": "[1]; >95% of target Dose 2, p = 0.0114 vs placebo", "value": 3447.0, "unit": "min"}, {"measurement": "Composite (the longer of the MV or InoTx), median", "setting": "[1]; All Patients, p = 0.3398 vs placebo (median 2204.0)", "value": 1640.0, "unit": "min"}, {"measurement": "Hospitalization, median", "setting": "[1]; All Patients, p = 0.3681 vs placebo (median 5)", "value": 5, "unit": "days"}, {"measurement": "Inotrope (duration of inotrope therapy), median", "setting": "[1]; All Patients, p = 0.7131 vs placebo (median 1717.0)", "value": 1514.0, "unit": "min"}, {"measurement": "PICU/NICU stay, median", "setting": "[1]; All Patients, p = 0.8484 vs placebo (median 3)", "value": 3, "unit": "days"}, {"measurement": "Vent (duration of mechanical ventilation), median", "setting": "[1]; All Patients, p = 0.9205 vs placebo (median 574.5)", "value": 672.0, "unit": "min"}, {"measurement": "Reduction in the length of stay in the PICU or NICU following surgery", "setting": "[1]; Dose 2 at levels <95%, statistically significant", "value": "one"}, {"measurement": "Duration of MV, InoTx and composite primary, vs placebo", "setting": "[1]; all doses under 95% of the target, two-sided Wilcoxon Rank Sum", "value": "Statistically significant reduction of all variables"}, {"measurement": "Composite endpoint, treated vs placebo", "setting": "[1]; complete modified full analysis set", "value": "no difference"}, {"measurement": "Effect on composite variable, duration of mechanical ventilation and inotrope therapy vs placebo", "setting": "[1]; doses higher than 95% of target (>190 μmol)", "value": "statistically significant negative effect"}, {"measurement": "Nitric oxide production as measured via NO metabolites", "setting": "[2]; continued increase in citrulline concentration", "value": "diminished production of NO"}, {"measurement": "Nitric oxide production", "setting": "[2]; increasing levels of citrulline, initially", "value": "initially facilitate nitric oxide production"}, {"measurement": "Primary parameters (duration of MV & InoTx), treated vs placebo", "setting": "[3]", "value": "near-significance"}]}]}
